In brackets after ≈: the same amount, converted by molar mass. Read-outs that look alike come from different tables or passages of the source.
Key:
[1] = First in Man study (Maximum Tolerated Dose, interindividual variability, food effect); assay type: in vivo; conditions: Miglyol 812N solution
Experimental: (§1) In the first preclinical studies performed in rats, the oral administration of an aqueous suspension of a drug substance of formula (I) in 0.5% methylcellulose/0.2% tween 80 (dose at 10 mg/kg) led to a very low bioavailability (3%). […] Furthermore, this excipient (medium chain triglyceride) is known for its digestibility and regulatory acceptability. […] However, in the First in Man study, an important food effect and interindividual variability were observed: the Maximum Tolerated Dose was around 100 mg in fasted conditions, with an interindividual variability of 50%, whereas in fed conditions the Maximum Tolerated Dose was divided by 10 with a decrease of the interindividual variability to 30%.

[2] = Solubility of compound (Ic) in lipids, surfactants and pharmaceutical cosolvents; assay type: physicochemical
Description: The first step was to determine the solubility of compound(Ic) in an exhaustive series of lipids and other pharmaceutical cosolvents including vegetable oils, lipidic components, surfactants, hydrophilic components and phospholipids. The protocol of the solubility measurement is reported in the annex.

[3] = Colloidal stability and self-emulsifying properties: drug recovered after incubation in simulated GI media and filtration; assay type: physicochemical; conditions: for Compound (Ic) recovered after filtration (2 μm) after incubation with GI media: diluted 1:50, 2 h at 37° C., theoretical concentration 200 μg/ml; for filtered fraction: aqueous solution of the drug, filter 0.45, 2 or 5 μm
Experimental: The preparation of the mixture of Miglyol 812 (liquid), Cremophor RH40 (semisolid at room temperature, solidification point 28° C.) and Capryol 90 (liquid) needed to heat the mixture at 60° C. to obtain a homogeneous solution. In addition, the heating of the mixture could have an impact on the chemical stability of Compound Ic. Taking into account these two issues, the proposition was made to replace Cremophor RH 40 by Cremophor EL (from same chemical family). Cremophor EL, polyoxyl 35 castor oil, is a liquid surfactant: No heating is needed for the manufacturing. Two tests were performed to evaluate the interest of Cremophor EL in comparison with Cremophor RH 40: design of the pseudoternary diagram for a surfactant/co surfactant ratio of 3:1 and test of the infinite dilutability. [drawing 15] • Miglyol 812N (Condea, Batch 508) • PEG 400—Batch 5056 • Phosal 50PG (Aventis Nattermann, Batch 228188) • Labrafil 1944CS (Gattefossé, Batch 15195) • Labrasol (Gattefossé, Batch 22478) • Gelucire 44/14 (Gattefossé, Batch 14236) Microemulsions (Cremophor RH40 or EL, Capryol 90, Miglyol 812N) The weighed drug (50 mg) was dispersed in the excipient (up to 5 g), and then maintained under mechanical stirring until dissolution. […] The mass was poured in a suppository mould and kept refrigerated overnight. For the stability studies, the melted mass was poured into hard gelatine capsule (size 1) and kept refrigerated overnight. The gelatine shell was then removed. [drawing 17] The following simulated media were selected for the present experiment: • Gastric medium USP, pH 1.2 • Fasted intestinal medium, pH 6.8 (ref. Dressman et al., Pharm. Res., 1998)
Fed intestinal medium, pH 5 (ref. Dressman et al., Pharm. Res., 1998)
All Compound (Ic) formulations (400 mg) were diluted 1:50 in the gastric, fasted intestinal or fed intestinal medium (20 ml), then incubated during 2 hours at 37° C. under mechanical stirring (300 rpm). The drug concentration was determined by HPLC before and after filtration (0.2 or 2 μm).
The aim of this study was to evaluate the colloidal stability and the self-emulsifying properties of the emulsion/microemulsion/micellar solution of the (Ic) formulation after incubation in the GI media. Thus, the sample was filtered onto 2 μm (able to retain oil droplets >2 μm, as well as drug crystals >2 μm) then dosed by HPLC. The filter size (2 μm) has been chosen after a screening with different filter sizes (0.45, 2 and 5 μm) tested on the aqueous solution of the drug. […] In summary, the filtered fraction was approximately 1% in the gastric medium, 2% in the fasted intestinal medium, 4.5-5.5% in the fed intestinal medium.

[4] = Oral bioavailability in preclinical studies in rats; conditions: rat, in vivo
Experimental: as §1

## CS(=O)(=O)C(=C1CN(C(c2ccc(Cl)cc2)c2ccc(Cl)cc2)C1)c1cc(F)cc(F)c1 [Compound (Ic)]
[1]; fasted conditions
  Maximum Tolerated Dose: around 100 mg
  interindividual variability: 50%
[1]; fed conditions
  Maximum Tolerated Dose relative to fasted conditions: divided by 10
  interindividual variability: 30%
[2]; aqueous with cosolvent or surfactant or cyclodextrin, in Cremophor RH40 (POE hydrogenated castor oil), read-out: solubility
  solubility: 80.6 mg/mL (≈ 163 mM)
[2]; aqueous with cosolvent or surfactant or cyclodextrin, in HP β Cyclodextrin, read-out: solubility
  solubility: 0.05 mg/mL (≈ 0.101 mM)
[2]; aqueous with cosolvent or surfactant or cyclodextrin, in Span 20 (Sorbitan monolaurate), read-out: solubility
  solubility: 31.6 mg/mL (≈ 63.9 mM)
[2]; aqueous with cosolvent or surfactant or cyclodextrin, in Span 85 (Sorbitan trioleate), read-out: solubility
  solubility: 92 mg/mL (≈ 186 mM)
[2]; aqueous with cosolvent or surfactant or cyclodextrin, in Tween 80 (POE monooleate), read-out: solubility
  solubility: 50.6 mg/mL (≈ 102 mM)
[2]; in Brij 96 (POE oleyl ether)
  solubility: 85.7 mg/g
[2]; in Capryol 90 (Polyethyleneglycol monocaprylate)
  solubility: 56.6 mg/g
[2]; in Castor oil
  solubility: 16.1 mg/g
[2]; in Coconut oil
  solubility: 18.6 mg/g
[2]; in Cremophor RH 40 (Polyoxyl 40 hydrogenated castor oil)
  solubility: 80.6 mg/g
[2]; in Crossential LN 75 (Linolenic acid)
  solubility: 45.4 mg/g
[2]; in Crossential O94 (Oleic acid)
  solubility: 19.6 mg/g
[2]; in Edenor C8 98-100 (Caprylic acid)
  solubility: 75.5 mg/g
[2]; in Gelucire 44/14 (lauroyl macrogol-32 glycerides)
  solubility: 90.1 mg/g
[2]; in Gelucire 50/13 (stearoyl macrogol-32 glycerides)
  solubility: 78.5 mg/g
[2]; in Labrafil M 1944 CS (Oleic Macrogol-6 glycerides)
  solubility: 30.3 mg/g
[2]; in Labrasol (Caprylocaproyl macrogol-8 glycerides)
  solubility: 111.8 mg/g
[2]; in Lauroglycol (PG monolaurate)
  solubility: 28.5 mg/g
[2]; in Miglyol 812 (Caprylic/capric triglycerides)
  solubility: 37.4 mg/g
[2]; in Myrj 45 (POE stearate)
  solubility: 86.9 mg/g
[2]; in Myvacet 9-45 (Distilled acetylated monoglycerides)
  solubility: 54.8 mg/g
[2]; in Neobee M 20 (PG dicaprylate/dicaprate)
  solubility: 47.7 mg/g
[2]; in Olive oil
  solubility: 10.9 mg/g
[2]; in PEG 1500 (polyethylene glycol 1500)
  solubility: <10 mg/g
[2]; in Phosal 40 MD (Phosphatidylcholine 38 ± 1.5% in glyceryl stearate, soya oil and linoleic acid ethylester)
  solubility: 12.5 mg/g
[2]; in Phosal 50 PG (Phosphatidylcholine ≧ 50% in propylene glycol)
  solubility: 11.7 mg/g
[2]; in Phosal 50 PG (Phosphatidylcholine ≧ 50% in propylene glycol), listed as Compound Ic
  solubility: 11.5 mg/g
[2]; in Phosal 53 MCT (Phosphatidylcholine 56 ± 3% in caprylic/capric triglycerides, alcohol, glyceryl stearate, oleic acid and ascorbyl palmitate)
  solubility: 25.8 mg/g
[2]; in Phosal 75 SA (Phosphatidylcholine 75 ± 3% in alcohol, safflower oil, glyceryl stearate, coconut oil and ascorbyl palmitate)
  solubility: <10 mg/g
[2]; in Phospholipon 90 (Phosphatidylcholine 93%)
  solubility: 40 mg/g
[2]; in Safflower oil
  solubility: 14.8 mg/g
[2]; in Sesame oil
  solubility: 10.9 mg/g
[2]; in VitaminE TPGS (d-α-tocopheryl polyethylene glycol 1000 succinate)
  solubility: 100 mg/g
[2]; oil or lipid, in Imwitor 742 (Glyceryl mono-dicaprylate/caprate), read-out: solubility
  solubility: 31.2 mg/mL (≈ 63.1 mM)
[2]; oil or lipid, in Imwitor 988 (Glyceryl mono-dicaprylate), read-out: solubility
  solubility: 41.2 mg/mL (≈ 83.3 mM)
[2]; oil or lipid, in Labrafil M1944 CS (oleyl macrogol-6-glycerides), read-out: solubility
  solubility: 30.3 mg/mL (≈ 61.3 mM)
[2]; oil or lipid, in Miglyol 812 (caprylic/capric triglyceride), read-out: solubility
  solubility: 35.9 mg/mL (≈ 72.6 mM)
[2]; oil or lipid, in Peanut oil, read-out: solubility
  solubility: 7.2 mg/mL (≈ 14.6 mM)
[2]; oil or lipid, in Soyabean oil, read-out: solubility
  solubility: 31.8 mg/mL (≈ 64.3 mM)
[2]; organic solvent or mixture, in Ethanol, read-out: solubility
  solubility: 5.8 mg/mL (≈ 11.7 mM)
[2]; organic solvent or mixture, in PEG 400 (polyethylene glycol 400), read-out: solubility
  solubility: 78.1 mg/mL (≈ 158 mM)
[2]; organic solvent or mixture, in Transcutol (Diethylene glycol monoethyl ether), read-out: solubility
  solubility: 89.8 mg/mL (≈ 182 mM)
[3]; Fasted intestinal medium pH 6.8
  Compound (Ic) recovered after filtration (2 μm) after incubation with GI media: 4.2 µg/mL
[3]; Fed intestinal medium pH 5
  Compound (Ic) recovered after filtration (2 μm) after incubation with GI media: 8.8 µg/mL
[3]; Gastric medium
  Compound (Ic) recovered after filtration (2 μm) after incubation with GI media: 1.9 µg/mL
[3]; fasted intestinal medium
  filtered fraction: ~2%
[3]; fed intestinal medium
  filtered fraction: 4.5-5.5%
[3]; gastric medium
  filtered fraction: approximately 1%
[4]; aqueous suspension in 0.5% methylcellulose/0.2% tween 80, dose 10 mg/kg
  bioavailability: 3%
[4]; solution of 25 mg/mL in Miglyol 812N, dose 1 mg/kg
  bioavailability: 13%
[4]; solution of 25 mg/mL in Miglyol 812N, dose 10 mg/kg
  bioavailability: 37%

From patent US20050037062A1, “Emulsifying systems containing azetidine derivatives” (Aventis Pharma S.A., priority 2003, published 2005)
